The values that follow come from article PMC10709007, “GPR162 is a beta cell CART receptor” (iScience, 2023).

Where no end group is shown, it is not given here.

The test system of one assay is GPR162. Nature of the assay: Co-immunoprecipitation of CART and GPR162 in INS-1 832/13 cells. The format is binding, rat. The settings on record: 10^-7M CARTp55-102, 30 min at 4°C, BS3 cross-link, precipitation with CART antibody, GPR162 blot; n = 3 biological replicates. The protocol: INS-1 832/13 cell lysates were incubated with 10^−7M CARTp55-102 for 30 min at 4°C and then cross-linked with 1 mM BS[3] for 30 min at room temperature, then precipitated using biotin-labelled CART antibody (code H003-62, dilution 1:5000, Phoenix Pharmaceuticals) bound to streptavidin-coated magnetic Dynabeads (Thermo Fisher). Cells lysates were then washed five times in ice-cold PBS and membrane proteins were extracted using MemPER Plus (Thermo Scientific). Protein concentration was then measured using BCA assay (BioRad, Hercules, CA) and 20 μg loaded on a 10% Mini-PROTEAN TGX Stain-Free gel (BioRad). After electrophoresis (200 V for 40 min) and transfer, the PVDF membrane was blocked in TBS-T with 5% fat free dry milk. Primary antibody (anti-rabbit GPR162, code TA331838, 1:100 dilution, Origene, Rockville, MD) was dissolved in 1XTBS-T with 5% BSA (overnight at 4°C). Secondary antibody (anti-rabbit IgG; 1:2500 dilution) was diluted in 1XTBS-T with 5% dry milk. All wash steps were for 10 min in 1XTBS-T.

The test system of assay [1] is dorsal horn of the spinal cord. The following applies: intrathecal injections; cited from earlier work. The source says: (§1) When studying neuropathic pain, Yosten et al.[11] found GPR160 to be necessary for CARTp-mediated cell activation in cell culture. […] However, whether GPR160 is a receptor for CART in the b ...
For another assay, the system named is PC-12 cells. The following applies: RNA interference of Gpr160; cited from earlier work.
Text: as §1

As to “CARTp55-102: Rat, mouse CARTp55-102 (Phoenix Pharmaceuticals, Cat#003-62); human form Cat#003-60; cocaine- and amphetamine-regulated transcript peptide (IPIYEKKYGQVPMCDAGEQCAVRKGARIGKLCDCPRGTSCNSFLLKCL; ends and bridges not checked; cysteine pairing not given here)”, the “Co-immunoprecipitated GPR162” value in the assay on GPR162 is reported as “stronger binding for GPR162 in the CARTp-treated cells than the binding observed in control cells”. The “Phosphorylation of ERK and CREB” value in assay [1] is “induced phosphorylation of ERK and CREB”. Further, the “ERK phosphorylation after Gpr160 RNA interference” value in the assay on PC-12 cells is “RNA interference of Gpr160 prevented CART from activating c-FOS expression and phosphorylation of ERK in vitro in KATO III cells and PC-12 cells, respectively”.
